The values that follow come from patent US5468756A, “Imidazonaphthyridine derivatives” (Kyowa Hakko Kogyo Co., Ltd., priority 1990, dated 1995).

Bounds are passed on as bounds.

Data set [1] deals with zymosan-induced paw edema. Briefly: Effect on zymosan-induced paw edema. In kind it is in vivo, male Wistar rats. The conditions noted are these: Rattus norvegicus, po, read-out: Suppression rate for paw swelling, zymosan-induced edema; for inhibition in vivo at 25 mg/kg: 25 mg/kg P.O. As for the experimental part: (§1) Male Wistar rats weighing 150 to 160 g (n=3-5) were used in the experiment. After the right hind paw volume was measured with the plethysmograph (TK-101; Unicom Co., Ltd.), the test compound (25, 50 or 100 mg/kg) was orally administered. After one hour, 0.1 ml of 1% carrageenin (λ-carrageenin; PICNIN-A®, Zushi Kagaku Co., Ltd.) was subcutaneously injected into the right hind paw footpad. Three hours after the injection of carrageenin, the right hind paw volume was measured and the swelling rate was determined by the following equation 1. [formula] Vt: the right hind paw volume measured 3 hours after the injection of carrageenin
(§2) Vo: the right hind paw volume measured prior to the injection of carrageenin
(§3) The suppression rate was calculated by the following equation 2. [formula] Swt: the swelling rate of the group administered with the test compound Swc: the swelling rate of the control group administered with physiological saline solution
b) Effect on zymosan-induced paw edema
The experiment was carried out in the same manner as in the carrageenin-induced paw edema test except that 1% zymosan (Zymosan A®; Sigma Chemical Co.) was used in place of 1% carrageenin and the right hind paw volume was measured […] the injection of the edema-inducing substance instead of 3 hours. The swelling rate and the suppression rate were calculated by equation 1 and equation 2, respectively.

Another data set relates to ddY strain male mice. As to the kind of experiment: Acute toxicity (Minimum Lethal Dose). In kind it is in vivo. As for the experimental part:
The test compound was orally and intraperitoneally administered to ddY strain male mice weighing 20 to 25 g. MLD (Minimum Lethal Dose) was determined by observing the mortality for […] after the administration.

The test system of data set [2] is carrageenin-induced paw edema. Briefly: Effect on carrageenin-induced paw edema. The class given is in vivo, male Wistar rats. The conditions noted are these: Rattus norvegicus, 3 hours after carrageenin, read-out: Suppression rate for paw swelling, carrageenin-induced edema; for inhibition in vivo at 100 mg/kg: p.o.; for inhibition in vivo at 50 mg/kg: po, 50 mg/kg P.O. How it is done:
a) Effect on carrageenin-induced paw edema
as §1, §2, §3

The subject of data set [3] is passive Schultz-Dale reaction. Briefly: Effect on passive Schultz-Dale reaction (broncho-dilative activity), sensitized tracheal strips contracted by antigen. Also noted: species or system male Hartley guinea pigs. Particulars: guinea pig tracheal zig-zag strips, 37° C., antigen egg white albumin 1 μg/ml; read-out: Passive Schultz-Dale reaction IC50 (concentration of 50% relaxation rate). How it is done:
d) Effect on passive Schultz-Dale reaction (broncho-dilative activity)
Male Hartley guinea pigs weighing 350 to 500 g were passively sensitized by intraperitoneal injection of rabbit anti-OA serum prepared in advance by the method of Koda et al. [Folia Pharmacol., Japon 66, 237, (1970)]. After 24 hours, the guinea pigs were stunned and exsanguinated, and then tracheae were removed. The zig-zag strips of the tracheae were prepared by the method of Emmerson and Mackay [J. Pharm. Pharmacol., 31, 798, (1979)]. The strips were suspended in Krebs-Henseleit solution at 37° C. under aeration of a mixed gas of 95% oxygen and 5% carbon dioxide, and equilibrated for one hour. Then, antigen (egg white albumin) was introduced in the solution (final concentration; 1 μg/ml), and the contraction was measured by isotonictransducer (TD-112s, made by Nihon Kohden K.K., Japan) and recorded on a recorder (Type 3066, made by Yokogawa-Hokushin Denki, K.K. Japan). After the contraction curves reached a plateau, the test compounds were successively added in order to get cumulative concentration-relaxation curves. The concentration of 50% relaxation rate (IC50) was calculated from the regression line, which was obtained from the cumulative concentration-relaxation curves.

Data set [4] relates to platelet activating factor (PAF)-induced mortality. As to the kind of experiment: Inhibition effect on platelet activating factor (PAF)-induced mortality. The class given is in vivo, male dd mice. The conditions noted are these: Mus musculus, po, PAF 40 μg/kg i.v., 3 h, n = 10, control group survival 0-20%, read-out: Survival rate of test compound-administered group. How it is done:
e) Inhibition effect on platelet activating factor (PAF)-induced mortality
The experiment was carried out by a minor modification of a known method [Br. J. Pharmacol., 79, 595 (1983)]. Groups each consisting of 10 male dd mice (weighing 28 to 32 g) were used, and 50 or 100 mg/kg of the test compound or a saline (control) was orally administered. One hour after the administration of test compound, 40 μg/kg of PAF (manufactured by Avanti Polar Lipids Co., Ltd.) was intravenously administered. Three hours after PAF injection, the mortality of the animals was observed.

Take `O=c1c2c(ncn2Cc2ccccc2)c2cccnc2n1-c1ccccc1` [Compound 13, 3-Benzyl-5-phenyl-3H-imidazo[4,5-c][1,8]naphthyridin-4(5H)-one]: in data set [1], the inhibition in vivo at 100 mg/kg came out at 65.1%. Further, in the data set with ddY strain male mice, the “MLD (Minimum Lethal Dose) i.p.” value is reported as above 100 mg/kg and the “MLD (Minimum Lethal Dose) p.o.” value is above 300 mg/kg. Also, in data set [2], the inhibition in vivo at 100 mg/kg is 58.1%. Moreover, the IC50 in data set [3] amounted to 1.3 µM. Besides, the responders at 100 mg/kg in data set [4] was found to be 90%.

On to `CCCCn1c(=O)c2c(ncn2C)c2cccnc21` [Compound 28, 5-n-Butyl-3-methyl-3H-imidazo[4,5-c][1,8]naphthyridin-4(5H)-one], for which the inhibition in vivo at 25 mg/kg in data set [1] amounted to 26.7%. Moreover, in data set [2], the inhibition in vivo at 100 mg/kg was found to be 20.6%. The IC50 in data set [3] amounted to 4.5 µM. Moreover, the responders at 100 mg/kg in data set [4] stood at 70%.

On to `COc1ccc(-n2c(=O)c3[nH]cnc3c3cccnc32)cc1` [Compound 22, 5-(4-Methoxy)phenyl-3H-imidazo[4,5-c][1,8]naphthyridin-4(5H)-one], for which the figures for the inhibition in vivo at 100 mg/kg in data set [1] and in data set [2] were 0% and 1.9%, respectively. The IC50 in data set [3] is above 10 µM. Moreover, in data set [4], the responders at 100 mg/kg came out at 30%.

Take `CCCCn1cnc2c3cccnc3n(-c3ccccc3)c(=O)c21` [Compound 11, 3-n-Butyl-5-phenyl-3H-imidazo[4,5-c][1,8]naphthyridin-4(5H)-one]: in data set [1], the inhibition in vivo at 25 mg/kg worked out at 55.5%. In the data set with ddY strain male mice, the “MLD (Minimum Lethal Dose) i.p.” value is given as above 100 mg/kg and the “MLD (Minimum Lethal Dose) p.o.” value was above 200 mg/kg. In data set [2], the inhibition in vivo at 100 mg/kg was found to be 56.4%. Moreover, the IC50 in data set [3] is above 10 µM. In addition, the responders at 100 mg/kg in data set [4] turned out to be 100%.

In the case of `O=c1c2c(ncn2CCc2ccccc2)c2cccnc2n1-c1ccccc1` [Compound 15, 3-Phenethyl-5-phenyl-3H-imidazo[4,5-c][1,8]naphthyridin-4(5H)-one], in data set [1], the inhibition in vivo at 25 mg/kg turned out to be 25.7%. For the same compound, in the data set with ddY strain male mice, the “MLD (Minimum Lethal Dose) i.p.” value is above 100 mg/kg and the “MLD (Minimum Lethal Dose) p.o.” value is reported as above 300 mg/kg. The inhibition in vivo at 100 mg/kg in data set [2] was 5.2%. In data set [3], the IC50 was 8.1 µM. The responders at 100 mg/kg in data set [4] turned out to be 50%.

As to `CC(=O)OCCn1cnc2c3cccnc3n(-c3ccccc3)c(=O)c21` [Compound 34, 3-(2-Acetoxyethyl)-5-phenyl-3H-imidazo[4,5-c][1,8]naphthyridin-4(5H)-one], the inhibition in vivo at 25 mg/kg in data set [1] stood at 41.6%. For the same compound, in the data set with ddY strain male mice, the “MLD (Minimum Lethal Dose) i.p.” value is above 100 mg/kg and the “MLD (Minimum Lethal Dose) p.o.” value is above 300 mg/kg. Further, the inhibition in vivo at 50 mg/kg in data set [2] was 42.2%. The IC50 in data set [3] stood at 0.68 µM. Besides, in data set [4], the responders at 100 mg/kg stood at 70%.

On to `O=c1c2c(ncn2CC2CCCCC2)c2cccnc2n1-c1ccccc1` [Compound 37, 3-Cyclohexylmethyl-5-phenyl-3H-imidazo[4,5-c][1,8]naphthyridin-4(5H)-one], for which, in data set [1], the inhibition in vivo at 25 mg/kg stood at 49.8%. Moreover, the inhibition in vivo at 50 mg/kg in data set [2] came out at 34.7%. Further, the IC50 in data set [3] is 6.2 µM. In addition, the responders at 100 mg/kg in data set [4] was 90%.

Regarding `COc1cccc(-n2c(=O)c3[nH]cnc3c3cccnc32)c1` [Compound 23, 5-(3-Methoxy)phenyl-3H-imidazo[4,5-c][1,8]naphthyridin-4(5H)-one], the inhibition in vivo at 25 mg/kg in data set [1] worked out at 18.1%. The inhibition in vivo at 100 mg/kg in data set [2] is 0%. Also, the IC50 in data set [3] was above 10 µM. The responders at 100 mg/kg in data set [4] was determined as 10%.

For the compound `Cc1nc2c([nH]1)c(=O)n(-c1ccccc1)c1ncccc21` [Compound 18, 2-Methyl-5-phenyl-3H-imidazo[4,5-c][1,8]naphthyridin-4(5H)-one], the inhibition in vivo at 25 mg/kg in data set [1] worked out at 26.7%. For the same compound, the inhibition in vivo at 100 mg/kg in data set [2] is 23.7%. In addition, the IC50 in data set [3] is above 10 µM. Besides, the responders at 100 mg/kg in data set [4] is 90%.
